In patent US4226980A, “Novel derivatives of fortimicin B and process for preparing same” (Abbott Laboratories, priority 1978, dated 1980):
Read-outs that look alike come from different tables or passages of the source.

Experiments:
[1] = test system: Pseudomonas aeruginosa R4 KY8511; assay: antibacterial activity (MIC), resistant strain; format: cell-based; conditions: medium pH 7.2; strain producing gentamicin acetyltransferase; unit assumed
Description: (§1) Furthermore in the following Table 3, the antibacterial activity (MIC) of the compounds are set forth. The measurement was carried out according to the Japanese Antibiotic Medicament Standard using a medium having a pH of 7.2. Numbers of the compounds in Table 3 correspond to those in Tables 1 and 2.

Providencia sp. 164 = assay: antibacterial activity (MIC), resistant strain; format: cell-based; conditions: medium pH 7.2; strain producing gentamicin acetyltransferase (footnote 5); unit assumed
Description: as §1

[2] = test system: Escherichia coli R18 KY-8321; assay: antibacterial activity (MIC), resistant strain; format: cell-based; conditions: medium pH 7.2; strain producing gentamicin nucleotidyltransferase and neomycin phosphotransferase II; unit assumed
Description: as §1

[3] = test system: Escherichia coli 57R/W677; assay: antibacterial activity (MIC), resistant strain; format: cell-based; conditions: medium pH 7.2; strain "producing gentamicin" (footnote 4); unit assumed
Description: as §1

[4] = test system: Klebsiella pneumniae 3020 Y60; assay: antibacterial activity (MIC), resistant strain; format: cell-based; conditions: medium pH 7.2; strain "producing gentamicin" (footnote 4); unit assumed
Description: as §1

[5] = test system: Escherichia coli R19 KY-8348; assay: antibacterial activity (MIC), resistant strain; format: cell-based; conditions: medium pH 7.2; strain producing gentamicin acetyltransferase; unit assumed
Description: as §1

[6] = test system: Pseudomonas aeruginosa R9 KY8516; assay: antibacterial activity (MIC), resistant strain; format: cell-based; conditions: medium pH 7.2; strain "producing kanamycin" (footnote 1); unit assumed
Description: as §1

[7] = test system: Escherichia coli R17 Z-343; assay: antibacterial activity (MIC), resistant strain; format: cell-based; conditions: medium pH 7.2; strain "producing kanamycin" (footnote 1); unit assumed
Description: as §1

[8] = test system: Klebsiella pneumoniae #8045; assay: antibacterial activity (MIC); format: cell-based; conditions: medium pH 7.2, Japanese Antibiotic Medicament Standard; unit assumed
Description: as §1

[9] = test system: Shigella sonnei ATCC 9290; assay: antibacterial activity (MIC); format: cell-based; conditions: medium pH 7.2, Japanese Antibiotic Medicament Standard; unit assumed
Description: as §1

[10] = test system: Staphylococcus aureus Smith; assay: antibacterial activity (MIC); format: cell-based; conditions: medium pH 7.2, Japanese Antibiotic Medicament Standard; unit assumed
Description: as §1

Escherichia coli 3100 = assay: antibacterial activity (MIC); format: cell-based; conditions: medium pH 7.2, Japanese Antibiotic Medicament Standard; unit assumed
Description: as §1

[11] = test system: Staphylococcus aureus 209-p; assay: antibacterial activity (MIC); format: cell-based; conditions: medium pH 7.2, Japanese Antibiotic Medicament Standard; unit assumed
Description: as §1

Providencia sp. KY3950 = assay: antibacterial activity (MIC); format: cell-based; conditions: medium pH 7.2, Japanese Antibiotic Medicament Standard; unit assumed
Description: as §1

Escherichia coli NIHJ-2 = assay: antibacterial activity (MIC); format: cell-based; conditions: medium pH 7.2, Japanese Antibiotic Medicament Standard; unit assumed
Description: as §1

[12] = test system: Pseudomonas aeruginosa BMH#10; assay: antibacterial activity (MIC); format: cell-based; conditions: medium pH 7.2, Japanese Antibiotic Medicament Standard; unit assumed
Description: as §1

[13] = test system: Bacillus subtilis ATCC 6633; assay: antibacterial activity (MIC); format: cell-based; conditions: medium pH 7.2, Japanese Antibiotic Medicament Standard; unit assumed
Description: as §1

[14] = format: physicochemical
Excerpt: That is, Compound I-a is almost decomposed in an alkaline solution with a pH of 10 at room temperature for 2 weeks to form compounds having low activity.

[15] = strongly alkaline or alkaline conditions; cited from earlier work
[16] = test system: various microorganisms including resistant strains; conditions: earlier patents; cited from earlier work

Structure (SMILES) | antibacterial activity (MIC) [1] [µg/mL] | antibacterial activity (MIC) (Providencia sp. 164) [µg/mL] | antibacterial activity (MIC) [2] [µg/mL] | antibacterial activity (MIC) [3] [µg/mL] | antibacterial activity (MIC) [4] [µg/mL] | antibacterial activity (MIC) [5] [µg/mL] | antibacterial activity (MIC) [6] [µg/mL] | antibacterial activity (MIC) [7] [µg/mL] | antibacterial activity (MIC) [8] [µg/mL] | antibacterial activity (MIC) [9] [µg/mL] | antibacterial activity (MIC) [10] [µg/mL] | antibacterial activity (MIC) (Escherichia coli 3100) [µg/mL] | antibacterial activity (MIC) [11] [µg/mL] | antibacterial activity (MIC) (Providencia sp. KY3950) [µg/mL] | antibacterial activity (MIC) (Escherichia coli NIHJ-2) [µg/mL] | antibacterial activity (MIC) [12] [µg/mL] | antibacterial activity (MIC) [13] [µg/mL] | also measured
COC1C(O)C(N)C(OC2OC(C(C)N)CCC2NCCN)C(O)C1N(C)CCN (stereo not drawn) [Compound 5, 4,2'-di-N-(2-aminoethyl)fortimicin B] | 100 | 50 | 6.25 | 6.25 | 25 | 25 | > 100 | 3.12 | 3.12 | 12.5 | 1.56 | 6.25 | 1.56 | 12.5 | 3.12 | 1.56 | 1.56 | –
COC1C(O)C(N)C(OC2OC(C(C)N)CCC2NCCO)C(O)C1N(C)C[C@@H](O)CCN (stereo partly drawn) [Compound 10, 4-N-[(S)-4-amino-2-hydroxybutyl]-2'-N-(2-hydroxyethyl)fortimicin B] | > 100 | 50 | 1.56 | 3.12 | 100 | 100 | 50 | 3.12 | 6.25 | 6.25 | 0.78 | 3.12 | 1.56 | 12.5 | 6.25 | 1.56 | 0.78 | –
NC[C@H]1O[C@H](O[C@H]2[C@H](O)[C@@H](O[C@H]3O[C@H](CO)[C@@H](O)[C@H](N)[C@H]3O)[C@H](N)C[C@@H]2N)[C@H](O)[C@@H](O)[C@@H]1O [KA, kanamycin A, reference compound] | > 100 | > 100 | > 100 | 100 | > 100 | > 100 | > 100 | 12.5 | 0.78 | 3.12 | 0.4 | 3.12 | 0.4 | 12.5 | 1.56 | 25 | 0.4 | –
COC1C(O)C(N)C(OC2OC(C(C)N)CCC2NC(=O)[C@@H](O)CCN)C(O)C1N(C)C[C@@H](O)CCN (stereo partly drawn) [Compound 8, 4-N-[(S)-4-amino-2-hydroxybutyl]-2'-N-[(S)-4-amino-2-hydroxybutyryl]fortimicin B] | 100 | 6.25 | 6.25 | 3.12 | 12.5 | 3.12 | 50 | 0.78 | 1.56 | 6.25 | 1.56 | 3.12 | 0.78 | 6.25 | 1.56 | 0.78 | 0.78 | –
COC1C(O)C(N)C(OC2OC(C(C)N)CCC2NC(=O)CN)C(O)C1N(C)C[C@@H](O)CCN (stereo partly drawn) [Compound 6, 4-N-[(S)-4-amino-2-hydroxybutyl]-2'-N-glycylfortimicin B] | 50 | 6.25 | 3.12 | 6.25 | 6.25 | 3.12 | 25 | 1.56 | 1.56 | 6.25 | 0.78 | 6.25 | 1.56 | 6.25 | 3.12 | 0.78 | 0.78 | –
COC1C(O)C(N)C(OC2OC(C(C)N)CCC2NC[C@@H](O)CCN)C(O)C1N(C)C[C@@H](O)CCN (stereo partly drawn) [Compound 9, 4,2'-di-N-[(S)-4-amino-2-hydroxybutyl]fortimicin B] | 100 | 3.12 | 1.56 | 3.12 | 3.12 | 6.25 | 3.12 | 1.56 | 1.56 | 3.12 | 0.78 | 3.12 | 0.78 | 1.56 | 1.56 | 0.78 | 0.4 | –
COC1C(O)C(N)C(OC2OC(C(C)N)CCC2NCCN)C(O)C1N(C)C[C@@H](O)CCN (stereo partly drawn) [Compound 7, 4-N-[(S)-4-amino-2-hydroxybutyl]-2'-N-(2-aminoethyl)fortimicin B] | 12.5 | 12.5 | 3.12 | 3.12 | 6.25 | 0.78 | 6.25 | 0.78 | 0.78 | 3.12 | 1.56 | 3.12 | 0.78 | 6.25 | 3.12 | 0.78 | 0.4 | –
COC1C(O)C(N)C(OC2OC(C(C)N)CCC2N)C(O)C1N(C)C(=O)CN (stereo not drawn) [Compound 2, fortimicin A, reference compound] | > 100 | 3.12 | 3.12 | 6.25 | 6.25 | > 100 | 12.5 | 1.56 | 1.56 | 6.25 | 1.56 | 6.25 | 0.78 | – | 1.56 | 0.78 | 0.78 | stability under strongly alkaline conditions ([14]; strongly alkaline conditions): slightly unstable; stability under alkaline conditions (background) [15]: slightly unstable
CNC1C(O)C(OC2OC(C(C)N)CCC2N)C(N)C(O)C1OC (stereo not drawn) [Compound 1, fortimicin B] | > 100 | > 100 | > 100 | > 100 | > 100 | > 100 | > 100 | > 100 | 100 | > 100 | 100 | 100 | > 100 | > 100 | > 100 | > 100 | 25 | antibacterial activity (background) [16]: not as good as the other factors
COC1C(O)C(N)C(OC2OC(C(C)N)CCC2N)C(O)C1N(C)C(=O)CNC(N)=O (stereo not drawn) [Compound 3, fortimicin C, reference compound] | > 100 | 25 | 12.5 | 6.25 | 50 | > 100 | 50 | 3.12 | 12.5 | 25 | 12.5 | 12.5 | 6.25 | 25 | 3.12 | 3.12 | 3.12 | stability under strongly alkaline conditions [14]: slightly unstable; stability under alkaline conditions (background) [15]: slightly unstable
